From US9937151B2, “Carbapenem antibacterials with gram-negative activity” (priority 2010, dated 2018)
Values after ≈ are worked out from the molar mass of the structure shown.

Tested on: G(−) bacterial strains
Assay: Dilution antimicrobial susceptibility tests (MIC, NCCLS agar dilution / broth dilution)
Assay type: cell-based, Gram-negative organisms
Settings: unit assumed
Experimental: The MIC (minimum inhibitory concentration) was determined by the NCCLS (National Committee for Clinical Laboratory Standards) methods 2000. Methods for dilution antimicrobial susceptibility testing for bacteria that growth aerobically (M7-A5, vol. 20, No. 2). The agar dilution method for determining antimicrobial susceptibility was carried out using Mueller-Hinton agar. A final inoculum of 10^4 CFU/spot was applied with an inoculation device. Broth dilution tests were performed with 5×10^5 CFU/well in 96 well plates. The susceptibilities of streptococci were determined by Mueller-Hinton agar supplemented with 5% sheep blood. All assays were run with the indicated control strains, available from the ATCC (American Type Culture Collection, Rockville, Md.).
Abbreviations used in Table 1 are defined as follows: Cf-R: Ceftazidime Resistance, Ci-R: Ciprofloxacin Resistance, Gen-R: Gentamycin Resistance, Imp-R: Imipenem Resistance, Mp-R: Meropenem Resistance, Ofx-R: Ofloxacin Resistance, B+: β-lactamase Production, AmpC: AmpC-lactamase Hyper production, CBPase: Carbapenemase Production.

[1] = strain #1 Acinetobacter calcoaceticus
[2] = strain #2 Acinetobacter baumannii, Cf-R, Ci-R
[3] = strain #3 Acinetobacter baumannii, Cf-R, Ci-R, Mp-I
[4] = strain #4 Acinetobacter baumannii, Cf-R, Imp-I, CBPase
[5] = strain #7 Enterobacter aerogenes
[6] = strain #8 Enterobacter cloacae, Cf-R, B+
[7] = strain #9 Enterobacter cloacae, Cf-R
[8] = strain #10 Escherichia coli, Ci-R
[9] = strain #11 Escherichia coli, Ci-R, AmpC
[10] = strain #15 Klebsiella pneumoniae
[11] = strain #16 Moraxella catarrhalis
[12] = strain #21 Providencia rettgeri
[13] = strain #22 Salmonella typhimurium
[14] = strain #25 Shigella dysenteriae
[15] = strain #28 Stenotrophomonas maltophilia
[16] = strain #29 Pseudomonas aeruginosa
[17] = strain #30 Pseudomonas aeruginosa
[18] = strain #31 Pseudomonas aeruginosa, Ofx-R
[19] = strain #32 Pseudomonas aeruginosa, Cf-R
[20] = strain #33 Pseudomonas aeruginosa, Ci-R
[21] = strain #34 Pseudomonas aeruginosa, Gen-R
[22] = strain #35 Pseudomonas aeruginosa, Ip-R
[23] = strain #36 Pseudomonas aeruginosa, Cf-R, Ci-R, Mp-R

SMILES	MIC [1]	MIC [2]	MIC [3]	MIC [4]	MIC (strain #5 Citrobacter diversus)	MIC (strain #6 Citrobacter freundii)	MIC [5]	MIC [6]	MIC [7]	MIC [8]	MIC [9]	MIC (strain #12 Escherichia coli)	MIC (strain #13 Escherichia coli)	MIC (strain #14 Klebsiella oxytoca)	MIC [10]	MIC [11]	MIC (strain #17 Morganella Morganii)	MIC (strain #18 Morganella Morganii)	MIC (strain #19 Proteus vulgaris)	MIC (strain #20 Proteus mirabilis)	also measured
C[C@@H](O)C1C(=O)N2C(C(=O)O)=C(CN3CC[C@H](N)C3)[C@H](C)C12 (stereo partly drawn) [Compound 27]	0.25 µg/mL (≈ 0.808 µM)	0.5 µg/mL (≈ 1.62 µM)	2 µg/mL (≈ 6.46 µM)	1 µg/mL (≈ 3.23 µM)	0.25 µg/mL (≈ 0.808 µM)	0.25 µg/mL (≈ 0.808 µM)	1 µg/mL (≈ 3.23 µM)	0.25 µg/mL (≈ 0.808 µM)	0.5 µg/mL (≈ 1.62 µM)	0.25 µg/mL (≈ 0.808 µM)	0.25 µg/mL (≈ 0.808 µM)	0.25 µg/mL (≈ 0.808 µM)	0.25 µg/mL (≈ 0.808 µM)	0.5 µg/mL (≈ 1.62 µM)	0.5 µg/mL (≈ 1.62 µM)	≤ 0.008 µg/mL	4 µg/mL (≈ 12.9 µM)	2 µg/mL (≈ 6.46 µM)	1 µg/mL (≈ 3.23 µM)	0.25 µg/mL (≈ 0.808 µM)	MIC [12]: 1 µg/mL (≈ 3.23 µM); MIC [13]: 0.25 µg/mL (≈ 0.808 µM); MIC (strain #23 Serratia marcescens): 0.5 µg/mL (≈ 1.62 µM); MIC (strain #24 Serratia marcescens): 1 µg/mL (≈ 3.23 µM); MIC [14]: 0.5 µg/mL (≈ 1.62 µM); MIC (strain #26 Shigella sonnei): 0.25 µg/mL (≈ 0.808 µM); MIC (strain #27 Shigella flexneri): 0.13 µg/mL (≈ 0.42 µM); MIC [15]: 0.13 µg/mL (≈ 0.42 µM); MIC [16]: 2 µg/mL (≈ 6.46 µM); MIC [17]: 2 µg/mL (≈ 6.46 µM); MIC [18]: 0.5 µg/mL (≈ 1.62 µM); MIC [19]: 2 µg/mL (≈ 6.46 µM); MIC [20]: 2 µg/mL (≈ 6.46 µM); MIC [21]: 2 µg/mL (≈ 6.46 µM); MIC [22]: 4 µg/mL (≈ 12.9 µM); MIC [23]: 8 µg/mL (≈ 25.9 µM)
C[C@@H](O)C1C(=O)N2C(C(=O)O)=C(CN3CC[C@H](C(=O)N(C)C)C3)[C@H](C)C12 (stereo partly drawn) [Compound 120]	4 µg/mL (≈ 10.9 µM)	8 µg/mL (≈ 21.9 µM)	16 µg/mL (≈ 43.8 µM)	4 µg/mL (≈ 10.9 µM)	0.5 µg/mL (≈ 1.37 µM)	0.5 µg/mL (≈ 1.37 µM)	2 µg/mL (≈ 5.47 µM)	0.5 µg/mL (≈ 1.37 µM)	1 µg/mL (≈ 2.74 µM)	0.5 µg/mL (≈ 1.37 µM)	0.5 µg/mL (≈ 1.37 µM)	0.5 µg/mL (≈ 1.37 µM)	0.5 µg/mL (≈ 1.37 µM)	1 µg/mL (≈ 2.74 µM)	1 µg/mL (≈ 2.74 µM)	0.016 µg/mL (≈ 0.0438 µM)	8 µg/mL (≈ 21.9 µM)	4 µg/mL (≈ 10.9 µM)	4 µg/mL (≈ 10.9 µM)	0.5 µg/mL (≈ 1.37 µM)	MIC [12]: 2 µg/mL (≈ 5.47 µM); MIC [13]: 0.5 µg/mL (≈ 1.37 µM); MIC (strain #23 Serratia marcescens): 1 µg/mL (≈ 2.74 µM); MIC (strain #24 Serratia marcescens): 2 µg/mL (≈ 5.47 µM); MIC [14]: 0.5 µg/mL (≈ 1.37 µM); MIC (strain #26 Shigella sonnei): 0.5 µg/mL (≈ 1.37 µM); MIC (strain #27 Shigella flexneri): 0.5 µg/mL (≈ 1.37 µM); MIC [15]: 1 µg/mL (≈ 2.74 µM); MIC [16]: 16 µg/mL (≈ 43.8 µM); MIC [17]: 16 µg/mL (≈ 43.8 µM); MIC [18]: 4 µg/mL (≈ 10.9 µM); MIC [19]: 16 µg/mL (≈ 43.8 µM); MIC [20]: 16 µg/mL (≈ 43.8 µM); MIC [21]: 16 µg/mL (≈ 43.8 µM); MIC [22]: > 32 µg/mL; MIC [23]: > 32 µg/mL
C[C@@H](O)C1C(=O)N2C(C(=O)O)=C(CN3CC[C@@H](C(N)=O)C3)[C@H](C)C12 (stereo partly drawn) [Compound 115]	0.5 µg/mL (≈ 1.48 µM)	1 µg/mL (≈ 2.96 µM)	2 µg/mL (≈ 5.93 µM)	1 µg/mL (≈ 2.96 µM)	0.25 µg/mL (≈ 0.741 µM)	0.25 µg/mL (≈ 0.741 µM)	1 µg/mL (≈ 2.96 µM)	0.13 µg/mL (≈ 0.385 µM)	0.25 µg/mL (≈ 0.741 µM)	0.25 µg/mL (≈ 0.741 µM)	0.25 µg/mL (≈ 0.741 µM)	0.25 µg/mL (≈ 0.741 µM)	0.25 µg/mL (≈ 0.741 µM)	0.25 µg/mL (≈ 0.741 µM)	0.5 µg/mL (≈ 1.48 µM)	≤ 0.008 µg/mL	2 µg/mL (≈ 5.93 µM)	2 µg/mL (≈ 5.93 µM)	1 µg/mL (≈ 2.96 µM)	0.25 µg/mL (≈ 0.741 µM)	MIC [12]: 1 µg/mL (≈ 2.96 µM); MIC [13]: 0.25 µg/mL (≈ 0.741 µM); MIC (strain #23 Serratia marcescens): 0.5 µg/mL (≈ 1.48 µM); MIC (strain #24 Serratia marcescens): 1 µg/mL (≈ 2.96 µM); MIC [14]: 0.25 µg/mL (≈ 0.741 µM); MIC (strain #26 Shigella sonnei): 0.25 µg/mL (≈ 0.741 µM); MIC (strain #27 Shigella flexneri): 0.25 µg/mL (≈ 0.741 µM); MIC [15]: 0.25 µg/mL (≈ 0.741 µM); MIC [16]: 4 µg/mL (≈ 11.9 µM); MIC [17]: 4 µg/mL (≈ 11.9 µM); MIC [18]: 1 µg/mL (≈ 2.96 µM); MIC [19]: 4 µg/mL (≈ 11.9 µM); MIC [20]: 8 µg/mL (≈ 23.7 µM); MIC [21]: 8 µg/mL (≈ 23.7 µM); MIC [22]: 8 µg/mL (≈ 23.7 µM); MIC [23]: > 32 µg/mL
C[C@@H](O)C1C(=O)N2C(C(=O)O)=C(CN3CC[C@H](C(=O)NS(N)(=O)=O)C3)[C@H](C)C12 (stereo partly drawn) [Compound 19]	0.5 µg/mL (≈ 1.2 µM)	0.5 µg/mL (≈ 1.2 µM)	2 µg/mL (≈ 4.8 µM)	1 µg/mL (≈ 2.4 µM)	0.25 µg/mL (≈ 0.6 µM)	0.25 µg/mL (≈ 0.6 µM)	1 µg/mL (≈ 2.4 µM)	0.25 µg/mL (≈ 0.6 µM)	0.5 µg/mL (≈ 1.2 µM)	0.25 µg/mL (≈ 0.6 µM)	0.25 µg/mL (≈ 0.6 µM)	0.25 µg/mL (≈ 0.6 µM)	0.25 µg/mL (≈ 0.6 µM)	0.5 µg/mL (≈ 1.2 µM)	0.5 µg/mL (≈ 1.2 µM)	≤ 0.008 µg/mL	4 µg/mL (≈ 9.6 µM)	2 µg/mL (≈ 4.8 µM)	1 µg/mL (≈ 2.4 µM)	0.25 µg/mL (≈ 0.6 µM)	MIC [12]: 1 µg/mL (≈ 2.4 µM); MIC [13]: 0.25 µg/mL (≈ 0.6 µM); MIC (strain #23 Serratia marcescens): 1 µg/mL (≈ 2.4 µM); MIC (strain #24 Serratia marcescens): 1 µg/mL (≈ 2.4 µM); MIC [14]: 0.25 µg/mL (≈ 0.6 µM); MIC (strain #26 Shigella sonnei): 0.25 µg/mL (≈ 0.6 µM); MIC (strain #27 Shigella flexneri): 0.25 µg/mL (≈ 0.6 µM); MIC [15]: 0.25 µg/mL (≈ 0.6 µM); MIC [16]: 4 µg/mL (≈ 9.6 µM); MIC [17]: 4 µg/mL (≈ 9.6 µM); MIC [18]: 1 µg/mL (≈ 2.4 µM); MIC [19]: 4 µg/mL (≈ 9.6 µM); MIC [20]: 4 µg/mL (≈ 9.6 µM); MIC [21]: 4 µg/mL (≈ 9.6 µM); MIC [22]: 8 µg/mL (≈ 19.2 µM); MIC [23]: 32 µg/mL (≈ 76.8 µM)
